Consider six compounds from publication PMC9247001, “Ligand-induced structural transitions combined with paramagnetic ions facilitate unambiguous NMR assignments of methyl groups in large proteins” (Journal of Biomolecular Nmr, 2022).

Like-named read-outs stand apart in the source and are kept apart here.

One test addresses UTP:LmUGP complex. Description: Four-states binding model, metal binding to UTP in complex with LmUGP (KD4). The arrangement: species or system Leishmania major. Particulars: approximated by nonlinear least-squares minimization of the four-states model from KD1-3.
A short description of test [1]: 1H NMR titration of di- and trivalent metals over UTP (KD1). Type of test: binding. The conditions noted are these: metal 0-1400 µM, UTP 239.2 or 250 µM, 293 K, 600 MHz, read-out: KD1, dissociation constant for the interaction of UTP with di- and trivalent metals.
Details of test [2]: method as in Zea et al. [2008]. The conditions noted are these: isothermal titration calorimetry; ref Zea et al. [2008]; read-out: KD1, dissociation constant for the interaction of UTP with divalent metals (converted); cited from earlier work.

For `[Cl][Eu]([Cl])[Cl]` [EuCl3], the figures for the Kd (on UTP:LmUGP complex; in test [1]) were 38 ± 12 µM and 28 ± 9 µM, respectively.
On to `[Cl][Mn][Cl]` [MnCl2], for which the Kd in test [2] was 77 ± 12 µM.
Turning to `[Cl][Lu]([Cl])[Cl]` [LuCl3], the Kd came out at 46 ± 21 µM at UTP:LmUGP complex and 38 ± 17 µM in test [1].
`[Cl][La]([Cl])[Cl]` [LaCl3]: the Kd at UTP:LmUGP complex stood at 15 ± 7 µM; in test [1] it was 11 ± 5 µM.
For the compound `[Cl][Ce]([Cl])[Cl]` [CeCl3], the Kd is 17 ± 5 µM at UTP:LmUGP complex and 13 ± 4 µM in test [1].
In the case of `[Cl-].[Cl-].[Mg+2]` [MgCl2], the Kd in test [2] is 70 µM; on UTP:LmUGP complex, 115 ± 10 µM; in test [1], 82 ± 6 µM.
